Tests used:
[1] = biological target: T1, D4.4 receptor (Homo sapiens, UniProt P21917); experiment: Competitive binding to D4.4 dopamine receptor ([3H]-YM-09151-2 radioligand); conditions: 5 mcM compound; human recombinant D4.4 in CHO cells; na = no activity
T1 construct: expressed in transfected cells; host or cells: CHO cells
T1 sequence (P21917 1-419): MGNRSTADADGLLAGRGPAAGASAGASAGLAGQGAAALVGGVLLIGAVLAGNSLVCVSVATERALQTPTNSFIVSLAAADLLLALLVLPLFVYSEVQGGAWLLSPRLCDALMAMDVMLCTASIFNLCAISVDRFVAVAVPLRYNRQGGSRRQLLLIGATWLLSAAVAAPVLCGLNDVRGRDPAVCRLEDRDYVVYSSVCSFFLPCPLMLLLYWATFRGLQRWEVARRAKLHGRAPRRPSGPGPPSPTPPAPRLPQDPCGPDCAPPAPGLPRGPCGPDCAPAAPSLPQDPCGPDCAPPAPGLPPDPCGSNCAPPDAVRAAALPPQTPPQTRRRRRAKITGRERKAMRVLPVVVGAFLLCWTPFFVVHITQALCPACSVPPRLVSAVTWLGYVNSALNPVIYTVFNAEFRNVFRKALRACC
Protocol: Compounds were assayed for competitive binding to D2 SHORT and D4.4 type dopamine receptors. Both receptor types are expressed as human recombinant proteins in CHO cells, as described, for example, in Jarvis et al. (1973); Van Tol et al. (1991) and Van Tol et al. (1992).
Determination of binding to D4.4 receptor was performed using [^3H]-YM-09151-2 (70-87 Ci/mmol, 0.3 nM), as a radioligand, in with the presence of various concentrations of the tested compound. Reactions were carried out in 50 mM TRIS-HCl (pH 7.4) containing 5 mM MgCl2, 5 mM EDTA, 5 mM KCl and 1.5 mM CaCl2, for 60 minutes at 22° C. The reaction was terminated by rapid vacuum filtration onto glass fiber filters. Radioactivity trapped onto the filters was determined (counted) and compared to control values in order to accurately evaluate any interaction of the tested compound(s) with the cloned dopamine D4.4 binding site.

[2] = biological target: T2, PDE5 partially purified from human platelets (Homo sapiens, UniProt O76074); experiment: Phosphodiesterase Type 5 (PDE5) Inhibition; type: biochemical; conditions: for PDE5 IC50, 10^−6 M / IC50: 'active' = observed activity not quantitated; for IC50: read-out: PDE5 IC50, 10^−6 M
T2 construct: PDE5 partially purified from human platelets was used; from tissue; host or cells: human platelets
Protocol: Phosphodiesterase type 5 (PDE5) catalyzes the conversion of cAMP or cGMP to their respective monophosphate forms. PDE5 has a high Km for cAMP and a low Km for cGMP, is insensitive to Ca^2+/calmodulin or cGMP regulation, and is relatively sensitive to inhibitors such as dipyridamol and zaprinast.
PDE5 partially purified from human platelets was used. The tested compound (at a concentration of 0.1, 1, 20 or 50 μM) and/or vehicle was incubated with 3.5 μg enzyme and 1 μM cGMP containing 0.01 μM [^3H]cGMP in Tris buffer pH 7.5 for 20 minutes at 30° C. Since enzyme activity may change from lot to lot, the concentration used was adjusted if required.
The reaction was terminated by boiling the reaction mixture for 2 minutes. The obtained GMP was then converted to guanosine by addition of 10 mg/ml snake venom nucleotidase and further incubation at 30° C. for 10 minutes. Unhydrolyzed cGMP was bound to AG1-X2 resin, and remaining [^3H]Guanosine in the aqueous phase was quantitated by scintillation counting.

Structure (SMILES)	inhibition at 5 µM [1]	inhibition at 50 µM ([2]; 50 mcM compound, 1 μM cGMP)	also measured
COc1ccccc1N1CCN(Cc2nc3cc(Cl)ccc3c(=O)[nH]2)CC1 [Compound B-38, 7-chloro-2-((4-(2-methoxyphenyl)piperazin-1-yl)methyl)quinazolin-4(3H)-one]	65%		
CCOc1ccccc1N1CCN(Cc2nc3cc(Cl)ccc3c(=O)[nH]2)CC1 [Compound B-45, 7-chloro-2-((4-(2-ethoxyphenyl)piperazin-1-yl)methyl)quinazolin-4(3H)-one]	46%		
Cc1cccc2nc(CN3CCN(c4cccc(O)c4)CC3)[nH]c(=O)c12 [Compound B-9, 2-((4-(3-hydroxyphenyl)piperazin-1-yl)methyl)-5-methylquinazolin-4(3H)-one]	89%	47%	PDE5 IC50, 10^−6 M [2]: active
O=c1[nH]c(CN2CCN(c3ncccn3)CC2)nc2ccccc12 [Compound 123, 2-[(4-pyrimidin-2-ylpiperazin-1-yl)methyl]quinazolin-4(3H)-one]	13%	61%	IC50 [2]: 26 µM
CCn1c(=O)c2[nH]c(CN3CC=C(c4ccccc4)CC3)nc2n(CC)c1=O [Xan2]	25%		
CCCOc1cccnc1N1CCN(Cc2nc3ccccc3c(=O)[nH]2)CC1 [Compound B-14, 2-((4-(3-propoxypyridin-2-yl)piperazin-1-yl)methyl)quinazolin-4(3H)-one]	81%	70%	IC50 [2]: 9 µM; exhibit both PDE5 inhibition and D4 agonist activity (dual activity) ([2]; referring to Table 2 (PDE5 and D4 assays)): both PDE5 inhibition and D4 agonist activity
O=c1c2ccccc2nc(CN2CCN(c3ncccn3)CC2)n1Cc1ccccc1 [Compound B-75, 3-benzyl-2-((4-(pyrimidin-2-yl)piperazin-1-yl)methyl)quinazolin-4(3H)-one]		73%	IC50 [2]: 21 µM
O=c1[nH]c2ccccc2nc1CN1CCN(c2ncccn2)CC1 [Compound B-44, 3-((4-(pyrimidin-2-yl)piperazin-1-yl)methyl)quinoxalin-2(1H)-one]	29%		
O=c1[nH]c(CN2CCN(c3ncccc3OCc3ccccc3)CC2)nc2ccccc12 [Compound B-10, 2-((4-(3-(benzyloxy)pyridin-2-yl)piperazin-1-yl)methyl)quinazolin-4(3H)-one]	60%	40%	PDE5 IC50, 10^−6 M [2]: active
O=c1[nH]c(CN2CCN(c3ccccn3)CC2)nc2nc[nH]c12 [Compound 409, 2-((4-(pyridin-2-yl)piperazin-1-yl)methyl)-1H-purin-6(7H)-one]	8%	24%	PDE5 IC50, 10^−6 M [2]: active
O=c1[nH]c2ccccc2nc1CN1CCN(c2cccc(O)c2)CC1 [Compound B-37, 3-((4-(3-hydroxyphenyl)piperazin-1-yl)methyl)quinoxalin-2(1H)-one]	62%		
O=c1[nH]c(CN2CCCC(c3ccccn3)C2)nc2ccccc12 (centres unmarked) [Compound B-83, 2-((3-(pyridin-2-yl)piperidin-1-yl)methyl)quinazolin-4(3H)-one]	57%		
COc1ccccc1C1=CCN(Cc2nc3ccccc3c(=O)[nH]2)CC1 [Compound B-31, 2-((5,6-dihydro-4-(2-methoxyphenyl)pyridin-1(2H)-yl)methyl)quinazolin-4(3H)-one]	74%		
N#Cc1ccccc1N1CCN(Cc2nc3ccccc3[nH]c2=O)CC1 [Compound B-34, 2-(4-((1,2-dihydro-2-oxoquinoxalin-3-yl)methyl)piperazin-1-yl)benzonitrile]	84%		
O=c1[nH]c(CN2CCN(c3cccc(O)c3)CC2)nc2cc(Cl)ccc12 [Compound B-3]			D4.4(h) Competitive Binding, % at 5 mcM [1]: 82%
O=c1[nH]c(CN2CCN(c3cccc(O)c3)CC2)nc2cc(Cl)ccc12 [Compound B-8, 7-chloro-2-((4-(3-hydroxyphenyl)piperazin-1-yl)methyl)quinazolin-4(3H)-one]	90%	28%	PDE5 IC50, 10^−6 M [2]: active

Structure (SMILES)	inhibition at 5 µM [1]	inhibition at 50 µM ([2]; 50 mcM compound, 1 μM cGMP)	also measured
O=c1[nH]c(CN2CC=C(c3ccccn3)CC2)nc2ccccc12 [Compound 115, 2-(3′,6′-dihydro-2,4′-bipyridin-1′(2′H)-ylmethyl)quinazolin-4(3H)-one]	66%		
CCn1c(=O)c2[nH]c(CN3CCN(c4cccc(O)c4)CC3)nc2n(CC)c1=O [Xan1, 1,3-diethyl-8-((4-(3-hydroxyphenyl)piperazin-1-yl)methyl)-1H-purine-2,6(3H,7H)-dione]	54%		
CCOc1cccnc1N1CCN(Cc2nc3cc(Cl)ccc3c(=O)[nH]2)CC1 [Compound B-43, 7-chloro-2-((4-(3-ethoxypyridin-2-yl)piperazin-1-yl)methyl)quinazolin-4(3H)-one]		26%	PDE5 IC50, 10^−6 M [2]: active
CCCn1cnc2nc(CN3CCN(c4cccc(O)c4)CC3)[nH]c(=O)c21 [Compound B-33, 2-((4-(3-hydroxyphenyl)piperazin-1-yl)methyl)-7-propyl-1H-purin-6(7H)-one]	11%	31%	PDE5 IC50, 10^−6 M [2]: active
O=c1[nH]c(CN2CCN(c3nccs3)CC2)nc2ccccc12 [Compound B-11, 2-((4-(thiazol-2-yl)piperazin-1-yl)methyl)quinazolin-4(3H)-one]	18%	68%	IC50 [2]: 2 µM
O=c1[nH]c2ccccc2nc1CN1CC=C(c2ccccc2)CC1 [Compound B-42, 3-((5,6-dihydro-4-phenylpyridin-1(2H)-yl)methyl)quinoxalin-2(1H)-one]	62%		
O=c1[nH]c(CN2CCN(c3ccccn3)CC2)nc2ccccc12 [Compound 102, 2-[(4-pyridin-2-ylpiperazin-1-yl)methyl]quinazolin-4(3H)-one]		29%	PDE5 IC50, 10^−6 M [2]: active
O=c1[nH]c(CN2CCC=C(c3ccccn3)C2)nc2ccccc12 [Compound B-82, 2-((5,6-dihydro-3-(pyridin-2-yl)pyridin-1(2H)-yl)methyl)quinazolin-4(3H)-one]	12%		PDE5 % inhibition at 50 mcM ([2]; 50 mcM compound, 1 μM cGMP): Problems with solubility; PDE5 IC50, 10^−6 M [2]: Problems with solubility
O=c1[nH]c(CN2CC=C(c3ccccc3)CC2)nc2cc(Cl)ccc12 [Compound B-47, 7-chloro-2-((5,6-dihydro-4-phenylpyridin-1(2H)-yl)methyl)quinazolin-4(3H)-one]	63%		
O=c1[nH]c(CN2CCN(c3ncccn3)CC2)nc2nc[nH]c12 [Compound 408, 2-((4-(pyrimidin-2-yl)piperazin-1-yl)methyl)-1H-purin-6(7H)-one]	33%	32%	PDE5 IC50, 10^−6 M [2]: active
COc1ccccc1C1=CCN(Cc2nc3cc(Cl)ccc3c(=O)[nH]2)CC1 [Compound B-39, 7-chloro-2-((5,6-dihydro-4-(2-methoxyphenyl)pyridin-1(2H)-yl)methyl)quinazolin-4(3H)-one]	95%		
O=c1[nH]c(CN2CC=C(c3ccccn3)CC2)nc2cc(Cl)ccc12 [Compound B-71, 7-chloro-2-((5,6-dihydro-4-(pyridin-2-yl)pyridin-1(2H)-yl)methyl)quinazolin-4(3H)-one]		63%	IC50 [2]: 27 µM
O=c1[nH]c(CN2CCN(c3cccc(O)c3)CC2)nc2cccc(F)c12 [Compound B-36, 5-fluoro-2-((4-(3-hydroxyphenyl)piperazin-1-yl)methyl)quinazolin-4(3H)-one]	82%		
O=c1[nH]c(CN2CCC(c3ccccc3)CC2)nc2ccccc12 [Compound B-51, 2-((4-phenylpiperidin-1-yl)methyl)quinazolin-4(3H)-one]	88%		
CCOc1cccnc1N1CCN(Cc2nc3ccccc3c(=O)[nH]2)CC1 [Compound B-13, 2-((4-(3-ethoxypyridin-2-yl)piperazin-1-yl)methyl)quinazolin-4(3H)-one]	86%		
